Laboratory results taken from the supplement of paper PMC10307832.

Columns and labels:
Experiment in all cases: relative viability (nuclei count vs DMSO), 5 days (fraction); higher = more cells survive
Dabrafenib + Dasatinib = compound: CC(C)(C)c1nc(-c2cccc(NS(=O)(=O)c3c(F)cccc3F)c2F)c(-c2ccnc(N)n2)s1 [Dabrafenib] + Cc1nc(Nc2ncc(C(=O)Nc3c(C)cccc3Cl)s2)cc(N2CCN(CCO)CC2)n1 [Dasatinib] (partner 0.075 µM)
Summary of the method: (§1)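 Values are medians from duplicate plates. Each reflects relative viability, defined as the nuclei count of treated wells over that of vehicle wells. Lung cancer cell lines in 1536-well plates were pin-tool dosed one day after seeding with one drug alone or with a fixed anchor-drug dose plus five library-drug doses (not always all listed) in √10 steps, then fixed, stained and imaged at 4× after 5 days.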

Dabrafenib + Lapatinib = compound: CC(C)(C)c1nc(-c2cccc(NS(=O)(=O)c3c(F)cccc3F)c2F)c(-c2ccnc(N)n2)s1 [Dabrafenib] + CS(=O)(=O)CCNCc1ccc(-c2ccc3ncnc(Nc4ccc(OCc5cccc(F)c5)c(Cl)c4)c3c2)o1 [Lapatinib] (partner 2 µM)
Summary of the method: as §1

VX-702 + Olaparib = compound: NC(=O)c1ccc(N(C(N)=O)c2c(F)cccc2F)nc1-c1ccc(F)cc1F [VX-702] + O=C(c1cc(Cc2n[nH]c(=O)c3ccccc23)ccc1F)N1CCN(C(=O)C2CC2)CC1 [Olaparib] (partner 8 µM)
Summary of the method: as §1

VX-702 + Crizotinib = compound: NC(=O)c1ccc(N(C(N)=O)c2c(F)cccc2F)nc1-c1ccc(F)cc1F [VX-702] + C[C@@H](Oc1cc(-c2cnn(C3CCNCC3)c2)cnc1N)c1c(Cl)ccc(F)c1Cl [Crizotinib] (partner 1 µM)
Summary of the method: as §1

Cell Line	relative viability (Dabrafenib + Dasatinib; first compound 0.003 µM)	relative viability (Dabrafenib + Dasatinib; first compound 0.009487 µM)	relative viability (Dabrafenib + Dasatinib; first compound 0.03 µM)	relative viability (Dabrafenib + Dasatinib; first compound 0.09487 µM)	relative viability (Dabrafenib + Dasatinib; first compound 0.3 µM)	relative viability (Dabrafenib + Lapatinib; first compound 0.003 µM)	relative viability (Dabrafenib + Lapatinib; first compound 0.009487 µM)	relative viability (Dabrafenib + Lapatinib; first compound 0.03 µM)	relative viability (Dabrafenib + Lapatinib; first compound 0.09487 µM)	relative viability (Dabrafenib + Lapatinib; first compound 0.3 µM)	relative viability (VX-702 + Olaparib; first compound 0.02 µM)	relative viability (VX-702 + Olaparib; first compound 0.2 µM)	relative viability (VX-702 + Olaparib; first compound 0.6325 µM)	relative viability (VX-702 + Olaparib; first compound 2 µM)	relative viability (VX-702 + Crizotinib; first compound 0.02 µM)	relative viability (VX-702 + Crizotinib; first compound 0.2 µM)	relative viability (VX-702 + Crizotinib; first compound 0.6325 µM)	relative viability (VX-702 + Crizotinib; first compound 2 µM)
201T	0.606	0.541	0.57	0.497	0.54	1.06	1.04	1.01	1.03	1.09	0.832	0.882	0.894	0.898	1.01	1.02	1.08	1.04
A549	–	–	–	–	–	0.899	1.06	1.07	1	1.04	0.444	0.243	0.374	0.114	0.754	0.812	0.739	1.08
A-427	–	0.77	0.594	0.51	0.627	–	1.06	0.878	0.793	1.05	0.779	0.751	0.725	0.943	0.824	0.81	0.808	1.01
ABC-1	0.64	0.531	–	0.58	0.799	1.14	1.24	1.3	1.2	1.05	0.443	0.894	1.03	0.746	1.34	–	1.08	1.42
BEN	–	0.334	–	0.356	0.327	–	0.805	–	0.81	0.841	0.781	0.89	0.991	1.06	0.732	0.781	0.937	0.956
CAL-12T	0.493	0.434	0.476	0.325	0.42	0.709	0.74	0.683	0.639	0.789	0.798	0.69	0.711	0.697	0.636	0.564	0.756	0.651
COR-L23	0.448	0.441	0.555	0.455	0.425	0.984	1.1	0.92	0.874	0.913	0.351	0.339	0.379	0.386	0.768	0.666	0.668	0.757
COR-L 105	0.316	0.39	0.366	0.373	0.368	0.273	0.367	0.3	0.375	0.426	0.633	0.658	0.768	0.859	0.653	0.79	0.956	1.21
Calu-6	–	–	–	–	–	1.18	1.03	0.911	0.848	0.886	–	0.597	0.65	0.64	0.847	0.86	0.764	0.996
ChaGo-K-1	0.477	0.487	0.56	0.586	0.559	–	–	–	–	–	0.458	0.414	0.433	0.352	1.09	1.1	1.21	1.23
EBC-1	–	–	–	–	–	–	0.233	0.223	0.23	0.274	0.82	0.702	0.653	0.745	0.191	0.18	0.158	0.201
EKVX	–	0.585	0.522	0.533	0.628	0.172	0.245	0.192	0.203	0.321	0.726	0.869	0.906	0.974	0.774	0.969	0.905	1.2
EMC-BAC-2	0.327	0.319	0.317	0.246	0.295	0.87	0.775	0.877	0.926	0.916	0.526	0.483	0.482	0.441	0.779	0.678	0.791	0.698
EPLC-272H	0.281	0.443	0.399	0.344	0.33	–	0.882	1	0.765	1.18	0.856	1.07	0.799	1.07	0.968	0.773	0.983	1.16
H3255	0.285	0.425	0.341	0.421	0.377	0.186	0.264	0.213	0.316	0.247	0.578	0.53	0.558	0.594	0.774	1.09	0.855	0.86
HARA	0.242	0.346	–	0.294	0.264	0.648	0.683	0.565	0.751	0.955	0.87	–	0.779	0.964	1.1	0.982	1.07	1.13
HCC-15	0.597	0.665	0.775	0.651	0.754	0.788	0.809	0.891	0.739	0.732	0.752	0.712	0.692	0.719	0.873	0.834	0.759	0.848
